In US11149050B2, “Highly soluble steviol glycosides” (PureCircle USA Inc., priority 2016, dated 2021):
Like-named read-outs stand apart in the source and are kept apart here.

Experiments:
[1] = cited from earlier work
[2] = cited from earlier work; for solubility (in words): water; for water solubility at room temperature: pure (>95% w/w) compound, room temperature (25° C.)
[3] = Solubility in RO water at room temperature (25° C.) within 5 minutes, soluble if <10 FAU turbidity; type: physicochemical; details: crystalline material
Description: Hereinafter, unless specified otherwise, the solubility of material is determined in RO (reverse osmosis) water at room temperature (25° C.) within 5 minutes.
Hereinafter, where the solubility is expressed as “%”, it to be understood as number of grams of material soluble in 100 grams of solvent.
Hereinafter, the descriptive terms for solubility are provided according to definitions in Combined Compendium of Food Additive Specifications Vol. 4 (FAO JECFA Monographs 1, Rome 2006, page 41).
Procedure: Unless otherwise specified, transfer a known amount of the sample into a flask containing known amount of the specified solvent, shake for no less than 30 sec and no more than 5 min.”
The material is deemed soluble at certain concentration if the produced solution has <10 FAU (Formazin Attenuation Unit) turbidity value.

Row | Compound | Rate of dissolution in H2O at 25° C. (descriptive) [1] | Rate of dissolution in H2O at 25° C. ([1]; in 5 minutes) | solubility, JECFA descriptive term [3] | water solubility at room temperature [2] | solubility (in words) [2] | other results
1 | C=C1C[C@@]23CC[C@H]4[C@@](C)(CCC[C@@]4(C)C(=O)O[C@@H]4O[C@H](CO)[C@@H](O)[C@H](O)[C@H]4O)[C@@H]2CC[C@]1(O[C@@H]1O[C@H](CO)[C@@H](O)[C@H](O[C@@H]2O[C@H](CO)[C@@H](O)[C@H](O)[C@H]2O)[C@H]1O[C@@H]1O[C@H](CO)[C@@H](O)[C@H](O)[C@H]1O)C3 [Form 1, Rebaudioside A] | Very low | – | – | – | – | Rate of dissolution in H2O at 25° C. ([1]; in 60 minutes): (<0.2% in 60; solubility (in words) ([2]; listed as hydrate form of Rebaudioside A): lowest solubility
2 | C=C1C[C@@]23CC[C@H]4[C@@](C)(CCC[C@@]4(C)C(=O)O[C@@H]4O[C@H](CO)[C@@H](O)[C@H](O)[C@H]4O)[C@@H]2CC[C@]1(O[C@@H]1O[C@H](CO)[C@@H](O)[C@H](O[C@@H]2O[C@H](CO)[C@@H](O)[C@H](O)[C@H]2O)[C@H]1O[C@@H]1O[C@H](CO)[C@@H](O)[C@H](O)[C@H]1O)C3 [Form 2, Rebaudioside A] | Intermediate | (<30% in 5 | – | – | – | –
3 | C=C1C[C@@]23CC[C@H]4[C@@](C)(CCC[C@@]4(C)C(=O)O[C@@H]4O[C@H](CO)[C@@H](O)[C@H](O)[C@H]4O)[C@@H]2CC[C@]1(O[C@@H]1O[C@H](CO)[C@@H](O)[C@H](O[C@@H]2O[C@H](CO)[C@@H](O)[C@H](O)[C@H]2O)[C@H]1O[C@@H]1O[C@H](CO)[C@@H](O)[C@H](O)[C@H]1O)C3 [Form 3, Rebaudioside A] | High | (>30% in | – | – | – | –
4 | C=C1C[C@@]23CC[C@H]4[C@@](C)(CCC[C@@]4(C)C(=O)O[C@@H]4O[C@H](CO)[C@@H](O)[C@H](O)[C@H]4O)[C@@H]2CC[C@]1(O[C@@H]1O[C@H](CO)[C@@H](O)[C@H](O[C@@H]2O[C@H](CO)[C@@H](O)[C@H](O)[C@H]2O)[C@H]1O[C@@H]1O[C@H](CO)[C@@H](O)[C@H](O)[C@H]1O)C3 [Form 4, Rebaudioside A] | High | (>35% in | – | – | – | solubility (in words) ([2]; listed as rebaudioside A amorphous forms): high solubility
5 | C=C1C[C@@]23CC[C@H]4[C@@](C)(CCC[C@@]4(C)C(=O)O[C@@H]4O[C@H](CO)[C@@H](O)[C@H](O)[C@H]4O[C@@H]4O[C@H](CO)[C@@H](O)[C@H](O)[C@H]4O)[C@@H]2CC[C@]1(O[C@@H]1O[C@H](CO)[C@@H](O)[C@H](O[C@@H]2O[C@H](CO)[C@@H](O)[C@H](O)[C@H]2O)[C@H]1O[C@@H]1O[C@H](CO)[C@@H](O)[C@H](O)[C@H]1O)C3 [Rebaudioside D] | – | – | very slightly soluble | less than 0.05% | very low water solubility | –
6 | C=C1C[C@@]23CC[C@H]4[C@@](C)(CCC[C@@]4(C)C(=O)O[C@@H]4O[C@H](CO)[C@@H](O)[C@H](O[C@@H]5O[C@H](CO)[C@@H](O)[C@H](O)[C@H]5O)[C@H]4O[C@@H]4O[C@H](CO)[C@@H](O)[C@H](O)[C@H]4O)[C@@H]2CC[C@]1(O[C@@H]1O[C@H](CO)[C@@H](O)[C@H](O[C@@H]2O[C@H](CO)[C@@H](O)[C@H](O)[C@H]2O)[C@H]1O[C@@H]1O[C@H](CO)[C@@H](O)[C@H](O)[C@H]1O)C3 [Rebaudioside M] | – | – | very slightly soluble | about 0.1% | very low water solubility | solubility (in words) ([2]; listed as rebaudioside M): poor aqueous solubility
